According to PubChem BioAssay (NCI):
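Test compounds were applied to cells in 96-well plates for 48 hours at 5 doses. TGI: concentration producing complete growth inhibition.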

Tests used:
Experiment in all cases: NCI anticancer screen, dose series, 48 h
[1] = system: HCC-2998 colon
[2] = system: SF-539 CNS
[3] = system: HCT-15 colon
[4] = system: OVCAR-4 ovarian
[5] = system: MDA-N
[6] = system: DU-145 prostate
[7] = system: SK-OV-3 ovarian
[8] = system: HOP-62 NSCLC
[9] = system: KM12 colon
[10] = system: U251 CNS

SMILES | TGI [1] [µM] | TGI [2] [µM] | TGI [3] [µM] | TGI [4] [µM] | TGI [5] [µM] | TGI [6] [µM] | TGI [7] [µM] | TGI [8] [µM] | TGI [9] [µM] | TGI [10] [µM]
C=C(C1=CC(=O)C(C)(C)O1)[C@@H]1CC=C([C@@H]2CC[C@H]3[C@@]2(C)CC[C@H]2C(C)(C)C(=O)[C@H](O)C[C@]32C)[C@H](O)O1 | 7.49 | 2.73 | 5.16 | 10.3 | 3.58 | 2.91 | 27.9 | 8.33 | 20.4 | 3.06
CCOC(=O)Nn1c(C)nnc1-c1ccccc1 | > 100 | > 100 | > 100 | > 100 | > 100 | > 100 | > 100 | – | > 100 | > 100
O=C(Cc1cccs1)N[C@@H]1C(=O)N2C(C(=O)OC(c3ccccc3)c3ccccc3)=C(CO)CS[C@H]12 | > 100 | > 100 | > 100 | > 100 | > 100 | > 100 | > 100 | – | > 100 | > 100
COc1ccc(/C=C2\CCC(C)C3=C2NC(=S)NC3c2ccc(OC)c(OC)c2)cc1OC (configuration not stated) | > 100 | > 31.6 | > 31.6 | > 100 | 12.1 | > 31.6 | > 31.6 | > 100 | > 31.6 | > 31.6
Clc1ccc(/C=C/c2nc3ccccc3s2)cc1Cl | > 100 | > 100 | > 100 | 37.3 | > 100 | > 100 | > 100 | 55.8 | > 100 | > 100
N#CC1=C(N)N(c2ccccc2)C(c2ccco2)C1(C#N)C#N (configuration not stated) | 31.3 | 41.2 | 43.2 | 49 | > 100 | 37.4 | > 100 | 54.3 | 37.2 | 43
Oc1cc2c3c(c1)c1cc4c(cc1c[n+]3CC2)OCO4 | 25.9 | > 100 | > 100 | > 48.6 | > 100 | > 42.9 | > 100 | > 100 | 13.9 | –
O=C1/C(=C/c2ccc(O)cc2)CC/C1=C\c1ccc(O)cc1 | > 100 | > 100 | > 100 | > 100 | > 100 | > 100 | > 100 | > 100 | > 100 | > 100
O=C1C(=Cc2ccc(O)cc2)N=C(c2ccccc2)N1n1c(-c2ccccc2)nc2ccccc2c1=O | > 100 | > 100 | > 100 | – | > 100 | > 100 | > 100 | > 100 | > 100 | –
CC(C)CC(=O)OC[n+]1ccc(-c2c(COC(=O)NC(C)C)c(COC(=O)NC(C)C)c3n2CCC3)cc1 | > 100 | > 100 | > 100 | > 100 | > 100 | > 100 | > 100 | > 100 | > 100 | > 100
COc1ccc(C(OCC2OC(n3cc(C)c(=O)[nH]c3=O)CC2n2cc(Cn3cc(I)c(=O)[nH]c3=O)nn2)(c2ccccc2)c2ccccc2)cc1 (configuration not stated) | > 100 | > 100 | > 100 | > 100 | > 100 | > 100 | > 100 | > 100 | > 100 | > 100
Cc1nc(C(N)=S)sc1/C(CC(=O)C(=O)Nc1cccc2ccc(O)cc12)=N\NC(=O)c1ccncc1 | > 100 | > 100 | > 100 | > 100 | > 100 | > 100 | > 100 | > 100 | > 100 | > 100
Cc1cccc(/C=N/NC(=S)Nc2ccccc2)n1 | > 61.6 | 10.4 | > 38.4 | > 90.4 | > 100 | > 67.7 | > 68.7 | 17.8 | > 100 | > 54.9
COc1c(C)c(C/C=C(\C)CCCCO[Si](c2ccccc2)(c2ccccc2)C(C)(C)C)c(OC)c(OC)c1OC | > 46.4 | > 46.4 | > 46.4 | > 46.4 | > 46.4 | 37.6 | > 46.4 | > 46.4 | 26.4 | > 46.4
C[C@@]12C[C@@H](c3ccccc3O1)N1CCCCSC1=N2 | > 100 | > 100 | > 100 | > 100 | > 100 | > 100 | > 100 | > 100 | > 100 | > 100
CCNC(=S)N/N=C/c1cc([N+](=O)[O-])ccc1O | > 100 | > 100 | > 100 | 72.8 | > 100 | > 100 | > 100 | > 100 | > 100 | > 100
O=C1OCC(O)=C1C(c1ccc(Cl)cc1)c1cc2c(cc1O)OCO2 (configuration not stated) | > 100 | > 100 | > 100 | > 100 | > 100 | > 100 | > 100 | > 100 | > 100 | –
O=C(O)CN(CC(=O)O)C1CCCCC1N(CC(=O)O)CC(=O)NCCN=C=S (configuration not stated) | > 100 | > 100 | > 100 | – | > 100 | > 100 | > 100 | > 100 | > 100 | > 100
Cc1ccc(SCC(CSCCO)OCn2cnc3c2NC(N)=NC32OCCO2)cc1 (configuration not stated) | > 100 | > 100 | > 100 | > 100 | > 100 | > 100 | > 100 | > 100 | – | > 100
Cc1cn(C2CC(n3cc(Cn4cc(I)c(=O)[nH]c4=O)nn3)C(CO)O2)c(=O)[nH]c1=O (configuration not stated) | > 100 | > 100 | > 100 | > 100 | > 100 | > 100 | > 100 | > 100 | > 100 | > 100
O=[N+]([O-])/C(C(Cl)=C(Cl)Cl)=C(\SCc1ccccc1)N1CCCCC1 | 45.7 | 46 | 49.7 | 51.5 | 50.3 | > 100 | > 100 | > 100 | 87.1 | > 100
